Like-named read-outs stand apart in the source and are kept apart here.

These results are taken from patent US10136663B2, “Curcuminoid-based compound/stevioside-containing complex for the prevention and treatment of an influenza virus infection” (priority 2011, dated 2018).

A short description of data set [1]: Curcumin content of curcumin/stevioside complex solution. The data set is classed as physicochemical. The conditions noted are these: in 100 g/L of the stevioside solution, after ultrasonication at 70° C. and oven reaction.
Data set [2] has as its system influenza virus type A (H9N2). Also on record: species or system chicken. The conditions noted are these: in vivo, po.
For data set [3], the system named is influenza virus H9N2 (A/Chicken/Korea/MS96/96). The conditions noted are these: dog.
Data set [4] has the same test system. Conditions: dog. This is another data set of the same source.

As for `COc1cc(/C=C/C(=O)/C=C(O)/C=C/c2ccc(O)c(OC)c2)ccc1O` [Curcumin, curcumin], the “maximum curcumin in the resulting solution” value in data set [1] is listed as 3.5 g/L.

For `C=C1C[C@@]23CC[C@H]4[C@@](C)(CCC[C@@]4(C)C(=O)O[C@@H]4O[C@H](CO)[C@@H](O)[C@H](O)[C@H]4O)[C@@H]2CC[C@]1(O[C@@H]1O[C@H](CO)[C@@H](O)[C@H](O)[C@H]1O[C@@H]1O[C@H](CO)[C@@H](O)[C@H](O)[C@H]1O)C3` [G4, stevioside], in data set [2], the “Mean virus titer, Cecal Tonsil” value was determined as 5.30 ± 3.5 log10EID50/g; the “Mean virus titer, Trachea” value is listed as 5.80 ± 1.3 log10EID50/g; the “Virus re-isolation, Cecal Tonsil (number of virus-positive chicken/number of inoculated chickens)” value was 8/10; the “Virus re-isolation, Trachea (number of virus-positive chicken/number of inoculated chickens)” value is listed as 10/10.

Take `CCOC(=O)C1=C[C@@H](OC(CC)CC)[C@H](NC(C)=O)[C@@H](N)C1` [Tamiflu, reference compound]: the “SI, selective index, CC50/EC50” value in data set [3] and in data set [4] was above 200 throughout.
